Measurements: patent US20240279294A1, “p53 VARIANT WITH IMPROVED LIQUID-LIQUID PHASE SEPARATION ABILITY AND ACTIVITY AND USE THEREOF” (Zhejiang University, priority 2023, published 2024)

Columns and labels:
U-2OS cells = assay: cell viability (CCK8), protein delivery combined with TAS-120 or IWR-1, U-2OS; assay type: cell-based, human; settings: LLPSE-p53 (SEQ ID NO.3) protein 0.5-2 μM 24 h, then inhibitor 5-20 μM 24 h; compared with inhibitor plus buffer
Procedure: The above system was sterilized with a 0.22 μm filter membrane. • 4. The complete medium in the well plate was sucked and discarded, and the above protein delivery system was added, the plate was then placed in an incubator for culture for 24 h. • 5. […] Cell viability was measured by a CCK8 method and with a M5 microplate reader. • 7. Graphpad5 software was used for data processing and one-way ANOVA method was used for statistical analysis.

CDKN1A = CDKN1A luciferase reporter assay in H1299 cells; assay type: cell-based, human; settings: H1299, plasmid co-transfected with CDKN1A reporter gene plasmid, 24 h; compared with WT-p53
Procedure: (§1) Implementation was made as follows: • 1. Proper number of cells were seeded into a 96-well cell culture plate, plasmids and CDKN1A reporter gene plasmid were co-transformed when cell density reached 60-70%, the cells were then cultured in an incubator for 24 h. • 2. A chemiluminescence test was carried out with a luciferase reporting system test kit produced by Promega and a M5 microplate reader. • 3. Graphpad5 software was used for data processing and analysis.
as §1, with “chemiluminescence assay” for “chemiluminescence test”, “with the” for “with a”, “system” for “system test”
Specific implementation steps can refer to Example 8.

Row | Molecule | killing of U-2OS cells by the inhibitor when combined with LLPSE-p53 protein (U-2OS cells) | transactivation activity on CDKN1A (CDKN1A)
1 | O=C(Nc1cccc2cccnc12)c1ccc(N2C(=O)[C@@H]3[C@H](C2=O)[C@@H]2C=C[C@H]3C2)cc1 [IWR-1] | significantly promotes TAS-120 or IWR-1 to kill U-2OS cells | 
2 | LLPSE-p53 (SEQ ID NO.7): p53 in rat with added sequence (including linker) GGASGHHHHHHHHGGAGGGGRRRRRRKK (protein) MEDSQSDMSIELPLSQETFSCLWKLLPPDDILPTTATGSPNSMEDLFLPQDVAELLEGPEEALQVSAPAAQEPGTEAPAPVAPASATPWPLSSSVPSQKTYQGNYGFHLGFLQSGTAKSVMCTYSISLNKLFCQLAKTCPVQLWVTSTPPPGTRVRAMAIYKKSQHMTEVVRRCPHHERCSDGDGLAPPQHLIRVEGNPYAEYLDDRQTFRHSVVVPYEPPEVGSDYTTIHYKYMCNSSCMGGMNRRPILTIITLEDSSGNLLGRDSFEVRVCACPGRDRRTEEENFRKKEEHCPELPPGSAKRALPTSTSSSPQQKKKPLDGEYFTLKIRGRERFEMFRELNEALELKDARAAEESGDSRAHSSYPKTKKGQSTSRHKKPMIKKVGPDSDGGASGHHHHHHHHGGAGGGGRRRRRRKK |  | significantly increases the transactivation activity of CDKN1A
